In brackets after ≈: the same amount, converted by molar mass. Where two headings read alike, the source gives them in different places.
How the values were obtained:
[1] = target: T1, adenosine deaminase (Bos taurus, UniProt P56658); assay: Adenosine deaminase resistance (remaining compound measured by HPLC); conditions: for Percent remainder 0 minute / Percent remainder 30 minutes: 5 mM compound in 0.05 M Tris-HCl buffer (pH 7.2), adenosine deaminase (calf intestine), 25°C
T1 sequence (P56658 1-363): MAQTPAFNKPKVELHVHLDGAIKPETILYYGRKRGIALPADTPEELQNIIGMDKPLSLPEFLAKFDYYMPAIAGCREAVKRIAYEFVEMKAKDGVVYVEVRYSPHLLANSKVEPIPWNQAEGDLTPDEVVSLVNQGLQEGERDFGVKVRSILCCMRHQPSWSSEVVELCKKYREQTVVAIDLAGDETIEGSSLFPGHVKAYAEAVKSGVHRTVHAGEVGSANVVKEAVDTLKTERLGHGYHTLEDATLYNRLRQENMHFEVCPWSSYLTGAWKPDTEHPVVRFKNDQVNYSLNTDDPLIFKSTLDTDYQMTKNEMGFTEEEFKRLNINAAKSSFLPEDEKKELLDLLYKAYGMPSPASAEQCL

[2] = tested on: Vesicular Stomatitis Virus (VSV); assay: microbe, parasite or virus in culture; assay type: cell-based; conditions: 36 h
[3] = tested on: parainfulenza virus; assay: Antiviral activity against parainfluenza virus in Vero cells (minimum virus growth inhibitory concentration); assay type: cell-based
[4] = tested on: Vero cells; assay: Cytotoxicity in Vero cells (minimum cytotoxicity concentration)

Row | Compound | Percent remainder 0 minute [1] [%] | Percent remainder 30 minutes [1] [%] | MIC [2] [µg/mL] | MIC ([3]; minimum virus growth inhibitory concentration, parainfulenza virus, Vero cells, read-out: MIC) [µg/mL] | MCC [4] | MIC [3] [µg/mL] | inactivated ([1]; summary of the adenosine deaminase resistance test (conditions of Table 3)) [%]
1 | CCC(O)C1=C[C@@H](n2cnc3c(N)ncnc32)[C@H](O)[C@@H]1O (stereo partly shown) [6'-C-Ethylneplanocin A, 6'-C-ethylneplanocin A] | 100 | 94 |  |  |  |  | 
2 | C#CC(O)C1=C[C@@H](n2cnc3c(N)ncnc32)[C@H](O)[C@@H]1O (stereo partly shown) [6'-C-Ethynylneplanocin A, 6'-C-ethynylneplanocin A] | 100 | 96 | 0.1 (≈ 0.348 µM) |  |  |  | 
3 | CC(O)C1=C[C@@H](n2cnc3c(N)ncnc32)[C@H](O)[C@@H]1O (stereo partly shown) [6'-C-Methylneplanocin A, 6'-C-methylneplanocin A] | 100 | 92 | 0.1 (≈ 0.361 µM) | 0.1 (≈ 0.361 µM) | ≧400 µg/mℓ |  | 
4 | Nc1ncnc2c1ncn2[C@@H]1C=C(CO)[C@@H](O)[C@H]1O [Neplanocin A] | 100 | 0 | 3.9 (≈ 14.8 µM) |  | ≧40 µg/mℓ | 0.1 (≈ 0.38 µM) | 100

Reference: patent publication EP0477700A1, “6'-C-alkyl- or alkynyl-neplanocin A, and its preparation process and use” (priority 1990, dated 1992)
